Experiment [1] concerns F21T_hTelo (DNA, G4) GGGTTAGGGTTAGGGTTAGGG
As to the kind of experiment: FRET melting. The conditions noted are these: K+ 10 mM (potassium phosphate); 10 mM potassium phosphate pH 7; 0.8 µM compound, 0.4 µM DNA, no competitor dsDNA.

Experiment [2] concerns F21T_c-kit1 (DNA, G4) GGGAGGGCGCTGGGAGGAGGG
As to the kind of experiment: FRET melting. Conditions: K+ 10 mM (potassium phosphate); 10 mM potassium phosphate pH 7; 0.8 µM compound, 0.4 µM DNA, no competitor dsDNA.

In experiment [3] the test system is F21T_k-ras (DNA, G4) GGGCGGTGTGGGAATAGGGAA
As to the kind of experiment: FRET melting. The conditions noted are these: K+ 10 mM (potassium phosphate); 10 mM potassium phosphate pH 7; 0.8 µM compound, 0.4 µM DNA, no competitor dsDNA.

In experiment [4] the test system is 22_hTelo (DNA, G4) AGGGTTAGGGTTAGGGTTAGGG
The experiment can be described thus: fluorescent indicator displacement. Conditions: K+ 40 mM (30 mM KCl + potassium phosphate); 10 mM potassium phosphate pH 7, 25 °C; 0.5 µM thiazole orange displaced, 0.25 µM DNA.

The subject of experiment [5] is 22_c-kit1 (DNA, G4) AGGGAGGGCGCTGGGAGGAGGG
As to the kind of experiment: fluorescent indicator displacement. The conditions noted are these: K+ 40 mM (30 mM KCl + potassium phosphate); 10 mM potassium phosphate pH 7, 25 °C; 0.5 µM thiazole orange displaced, 0.25 µM DNA.

For experiment [6], the system named is 21_c-kit2 (DNA, G4) CGGGCGGGCGCGAGGGAGGGG
As to the kind of experiment: fluorescent indicator displacement. The conditions noted are these: K+ 40 mM (30 mM KCl + potassium phosphate); 10 mM potassium phosphate pH 7, 25 °C; 0.5 µM thiazole orange displaced, 0.25 µM DNA.

For experiment [7], the system named is 22_c-myc (DNA, G4) TGAGGGTGGGTAGGGTGGGTAA
The experiment can be described thus: fluorescent indicator displacement. The conditions noted are these: K+ 40 mM (30 mM KCl + potassium phosphate); 10 mM potassium phosphate pH 7, 25 °C; 0.5 µM thiazole orange displaced, 0.25 µM DNA.

In experiment [8] the test system is 22_k-ras (DNA, G4) AGGGCGGTGTGGGAATAGGGAA
As to the kind of experiment: fluorescent indicator displacement. Conditions: K+ 40 mM (30 mM KCl + potassium phosphate); 10 mM potassium phosphate pH 7, 25 °C; 0.5 µM thiazole orange displaced, 0.25 µM DNA.

The test system of experiment [9] is 26_ds (DNA, duplex) CAATCGGATCGAATTCGATCCGATTG
The experiment can be described thus: fluorescent indicator displacement. Conditions: K+ 40 mM (30 mM KCl + potassium phosphate); 10 mM potassium phosphate pH 7, 25 °C; 0.5 µM thiazole orange displaced, 0.25 µM DNA.

The test system of experiment [10] is F20T_c-kit2 (DNA, G4) GGGCGGGCGCGAGGGAGGGG
As to the kind of experiment: FRET melting. Conditions: K+ 10 mM (potassium phosphate); 10 mM potassium phosphate pH 7; 0.8 µM compound, 0.4 µM DNA, no competitor dsDNA.

Experiment [11] concerns F21T_c-myc (DNA, G4) GAGGGTGGGTAGGGTGGGTAA
The experiment can be described thus: FRET melting. Conditions: K+ 10 mM (potassium phosphate); 10 mM potassium phosphate pH 7; 0.8 µM compound, 0.4 µM DNA, no competitor dsDNA.

The structures appear in SMILES notation.

What is called ΔTm is the change in melting temperature against a reference sample. As to `C(=N\[C@@H](COCc1ccc(-c2ccccn2)nc1)c1ccccc1)/c1ccc(OCc2cn(Cc3ccccc3)nn2)cn1.C(=N\[C@@H](COCc1ccc(-c2ccccn2)nc1)c1ccccc1)/c1ccc(OCc2cn(Cc3ccccc3)nn2)cn1.C(=N\[C@@H](COCc1ccc(-c2ccccn2)nc1)c1ccccc1)/c1ccc(OCc2cn(Cc3ccccc3)nn2)cn1.[Fe+2].[Fe+2]`, the ΔTm was found to be 24.6 °C in experiment [1], 23.7 °C in [2] and 21.0 °C in experiment [3]. The DC50 in [4] came out at 1060 ± 30 nM; in experiment [5], 870 ± 20 nM; in [6], 850 ± 50 nM; in experiment [7], 400 ± 30 nM; in experiment [8], 450 ± 20 nM; in experiment [9], 3900 ± 200 nM.
On to `C(=N\[C@@H](COCc1ccc(-c2ccccn2)nc1)c1ccccc1)/c1ccccn1.C(=N\[C@@H](COCc1ccc(-c2ccccn2)nc1)c1ccccc1)/c1ccccn1.C(=N\[C@@H](COCc1ccc(-c2ccccn2)nc1)c1ccccc1)/c1ccccn1.[Fe+2].[Fe+2]`, for which the ΔTm in experiment [2] was determined as 27.2 °C. Moreover, the DC50 came to 1950 ± 90 nM in [4]; 1410 ± 30 nM in experiment [5]; 1260 ± 60 nM in experiment [6]; 800 ± 40 nM in experiment [7]; 650 ± 30 nM in experiment [8]; 5300 ± 300 nM in [9].
For `C(=N\[C@H](COCc1ccc(-c2ccccn2)nc1)c1ccccc1)/c1ccc(OCc2cn(Cc3ccccc3)nn2)cn1.C(=N\[C@H](COCc1ccc(-c2ccccn2)nc1)c1ccccc1)/c1ccc(OCc2cn(Cc3ccccc3)nn2)cn1.C(=N\[C@H](COCc1ccc(-c2ccccn2)nc1)c1ccccc1)/c1ccc(OCc2cn(Cc3ccccc3)nn2)cn1.[Fe+2].[Fe+2]`, the ΔTm in [10] was 11.9 °C; in experiment [11] it was 5.2 °C; in [3], 41.8 °C. In addition, the DC50 in experiment [4] amounted to 1050 ± 50 nM; in experiment [5] it was 790 ± 30 nM; in [6], 780 ± 50 nM; in experiment [7], 300 ± 30 nM; in experiment [8] it was 270 ± 10 nM; in experiment [9], 2600 ± 100 nM.
As for `C(=N\[C@H](COCc1ccc(-c2ccccn2)nc1)c1ccccc1)/c1ccccn1.C(=N\[C@H](COCc1ccc(-c2ccccn2)nc1)c1ccccc1)/c1ccccn1.C(=N\[C@H](COCc1ccc(-c2ccccn2)nc1)c1ccccc1)/c1ccccn1.[Fe+2].[Fe+2]`, the figures for the ΔTm in experiment [1], in experiment [10] and in experiment [11] were 27.6 °C, 19.8 °C and 11.7 °C, respectively. Besides, the DC50 in experiment [4] was determined as 2200 ± 100 nM; in experiment [5], 960 ± 40 nM; in [6], 1050 ± 40 nM; in [7], 530 ± 20 nM; in experiment [8] it was 420 ± 20 nM; in experiment [9], 3800 ± 200 nM.

(Values after publication PMC10078150 (2023).)
